According to patent US11414424B2, “Cardiac sarcomere inhibitors” (Cytokinetics, Inc., priority 2018, dated 2022):

System: bovine cardiac myofibrils
Assay: Myofibril assay: PK/LDH-coupled steady-state ATPase activity of skinned bovine cardiac myofibrils
Assay type: biochemical
Conditions: Ca2+ activating to 75% of maximal rate
Summary of the method: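 Steady-state ATPase of detergent-skinned bovine left-ventricular myofibrils (1 mg/mL), PK/LDH-coupled NADH read at 340 nm, in PIPES/MgCl2 buffer pH 6.8 with 50 μM ATP, 0.6 mM EGTA and CaCl2 set for 50% or 75% activation. Inhibition of activity measured.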

SMILES	CDMF75 IC15
Cc1cc(N2CC3(C2)C(=O)N(C(C)C)CC(=O)N3Cc2ccc(Cl)cc2)n[nH]1 [Compound 26, 5-(4-chlorobenzyl)-8-isopropyl-2-(5-methyl-1H-pyrazol-3-yl)-2,5,8-triazaspiro[3.5]nonane-6,9-dione]	3.0 µM
CNC(=O)N1CC2(C1)C(=O)N(c1ccc(C(F)F)cc1)CC(=O)N2Cc1ccc(C(F)(F)F)cc1 [Compound 157, 8-(4-(difluoromethyl)-phenyl)-N-methyl-6,9-dioxo-5(4-(trifluoromethyl)-benzyl)-2,5,8-triazaspiro-[3.5]nonane-2-carboxamide]	5.5 µM
O=C1C(C2COC2)N(Cc2ccc(F)cc2)C(=O)CN1c1ncc(Br)cc1F (centres unmarked) [Compound 707, 1-(5-bromo-3-fluoropyridin-2-yl)-4-(4-fluorobenzyl)-3-(oxetan-3-yl)piperazine-2,5-dione]	2.9 µM
N#Cc1ccc(N2CC(=O)N(Cc3ccc(C(F)(F)F)cc3)C3(CN(CC(F)F)C3)C2=O)cc1 [Compound 191, 4-(2-(2,2-difluoroethyl)-6,9-dioxo-5-(4-(trifluoromethyl)benzyl)-2,5,8-triazaspiro[3.5]nonan-8-yl)benzonitrile]	14.3 µM
CNC(=O)N1CCC2(C1)C(=O)N(c1ccc(C#N)cc1)CC(=O)N2Cc1ccc(C(F)(F)F)cc1 (centres unmarked) [Compound 183, 9-(4-cyanophenyl)-N-methyl-7,10-dioxo-6-(4-(trifluoromethyl)benzyl)-2,6,9-triazaspiro[4.5]-decane-2-carboxamide]	4.6 µM
N#Cc1ccc(N2CC3(C2)C(=O)N(C2CCCC2)CC(=O)N3Cc2ccc(C(F)(F)F)cc2)nc1 [Compound 58, 6-(8-cyclopentyl-6,9-dioxo-5-(4-(trifluoromethyl)benzyl)-2,5,8-triazaspiro[3.5]-nonan-2-yl)nicotinonitrile]	4.1 µM
CC(C)NC(=O)N1CCC2(C1)C(=O)N(C(C)C)CC(=O)N2Cc1ccc(Cl)cc1 (centres unmarked) [Compound 383, 6-(4-chlorobenzyl)-N,9-diisopropyl-7,10-dioxo-2,6,9-triazaspiro[4.5]-decane-2-carboxamide]	>39 µM
COC(=O)N1CC2(C1)C(=O)N(c1ncc(Cl)cc1F)CC(=O)N2[C@@H](C)c1ccc(Cl)cc1 [Compound 567, methyl (S)-8-(5-chloro-3-fluoropyridin-2-yl)-5-(1-(4-chlorophenyl)ethyl)-6,9-dioxo-2,5,8-triazaspiro-[3.5]nonane-2-carboxylate]	1.2 µM
CC(C)N1CC(=O)N(Cc2ccc(Cl)cc2)C2(CCN(c3ccccn3)C2)C1=O (single isomer, unassigned) [Compound 373B, 6-[(4-chlorophenyl)methyl]-9-(propan-2-yl)-2-(pyridin-2-yl)-2,6,9-triazaspiro[4.5]decane-7,10-dione]	>39 µM
CC(C)N1CC(=O)N(Cc2ccc(C(F)(F)F)cc2)C2(CN(c3cc[nH]c(=O)c3)C2)C1=O [Compound 48, 8-isopropyl-2-(2-oxo-1,2-dihydropyridin-4-yl)-5-(4-(trifluoromethyl)benzyl)-2,5,8-triazaspiro[3.5]-nonane-6,9-dione]	1.6 µM
CC(C)N1CC(=O)N(Cc2ccc(Cl)cc2)C(c2ccccc2Cl)C1=O (centres unmarked) [Compound 310, 4-(4-chlorobenzyl)-3-(2-chlorophenyl)-1-isopropylpiperazine-2,5-dione]	13.1 µM
C[C@@H]1C(=O)N(c2ccc(Cl)cc2F)CC(=O)N1Cc1ccc(C(F)(F)F)cc1 [Compound 275, (R)-1-(4-chloro-2-fluoro-phenyl)-3-methyl-4-(4-(trifluoromethyl)benzyl)-piperazine-2,5-dione]	6.0 µM
O=C1C(C2COC2)N(Cc2ccc(C(F)(F)F)cc2)C(=O)CN1c1ccc(Cl)cc1F (centres unmarked) [Compound 281, 1-(4-chloro-2-fluorophenyl)-3-(oxetan-3-yl)-4-(4-(trifluoromethyl)benzyl)-piperazine-2,5-dione]	4.3 µM
CC(C)N1CC(=O)N(Cc2ccc(C(F)(F)F)cc2)C2(CCN(C(=O)Nc3cccnc3)C2)C1=O (centres unmarked) [Compound 113, 9-isopropyl-7,10-dioxo-N-(pyridin-3-yl)-6-(4-(trifluoromethyl)benzyl)-2,6,9-triazaspiro[4.5]-decane-2-carboxamide]	18.5 µM
Cc1ccc(CN2C(=O)CN(c3ncc(Cl)cc3F)C(=O)[C@H]2C23CC(C(N)=O)(C2)C3)cc1 [Compound 824, (R)-3-(4-(5-chloro-3-fluoropyridin-2-yl)-1-(4-methylbenzyl)-3,6-dioxopiperazin-2-yl)-bicyclo[1.1.1]pentane-1-carboxamide]	>39 µM
CNC(=O)N1CC2(C1)C(=O)N(c1ccc(Cl)cc1F)CC(=O)N2Cc1ccc(C(F)(F)F)cc1 [Compound 168, 8-(4-chloro-2-fluoro-phenyl)-N-methyl-6,9-dioxo-5-(4-(trifluoro-methyl)benzyl)-2,5,8-triazaspiro[3.5]nonane-2-carboxamide]	0.3 µM
CNC(=O)N1CC2(C1)C(=O)N(c1ccc(-c3noc(C(F)F)n3)cc1)CC(=O)N2Cc1ccc(C(F)(F)F)cc1 [Compound 165, 8-(4-(5-(difluoromethyl)-1,2,4-oxadiazol-3-yl)-phenyl)-N-methyl-6,9-dioxo-5-(4-(trifluoromethyl)-benzyl)-2,5,8-triazaspiro-[3.5]nonane-2-carboxamide]	1.4 µM
CC(C)N1CC(=O)N(Cc2ccc(Cl)cc2)C2(CN(c3nccs3)C2)C1=O [Compound 22, 5-(4-chlorobenzyl)-8-isopropyl-2-(thiazol-2-yl)-2,5,8-triazaspiro[3.5]-nonane-6,9-dione]	4.1 µM
O=C1C(C2COC2)N(Cc2ccc(F)cc2)C(=O)CN1c1ccc(Br)cc1F (centres unmarked) [Compound 700, 1-(4-bromo-2-fluoro-phenyl)-4-(4-fluorobenzyl)-3-(oxetan-3-yl)piperazine-2,5-dione]	3.4 µM
CC(C)N1CC(=O)N(Cc2ccc(Cl)cc2)C2(CN(c3ncccn3)C2)C1=O [Compound 11, 5-(4-chlorobenzyl)-8-isopropyl-2-(pyrimidin-2-yl)-2,5,8-triazaspiro-[3.5]nonane-6,9-dione]	17.4 µM
C=C(C)c1ccc(N2CC(=O)N(Cc3ccc(C(F)(F)F)cc3)C3(CN(C(=O)NC)C3)C2=O)cc1 [Compound 161, N-methyl-6,9-dioxo-8-(4-(prop-1-en-2-yl)phenyl)-5-(4-(trifluoromethyl)benzyl)-2,5,8-triazaspiro[3.5]-nonane-2-carboxamide]	4.7 µM
CC(C)N1CC(=O)N(Cc2ccc(Cl)cc2)C2(CN(c3ccc(Cl)nn3)C2)C1=O [Compound 50, 5-(4-chlorobenzyl)-2-(6-chloropyridazin-3-yl)-8-isopropyl-2,5,8-triazaspiro[3.5]nonane-6,9-dione]	5.8 µM
CC(=O)NC[C@@H]1C(=O)N(c2ncc(Cl)cc2F)CC(=O)N1Cc1ccc(C(F)(F)F)cc1 [Compound 626, (R)-N-((4-(5-chloro-3-fluoropyridin-2-yl)-3,6-dioxo-1-(4-(trifluoro-methyl)benzyl)piperazin-2-yl)methyl)acetamide]	>39 µM
